Laboratory results published in patent US11576900B2, “Compositions and methods of reducing serum cholesterol and PCSK9” (CASE WESTERN RESERVE UNIVERSITY, priority 2017, dated 2023).
pIC50: −log10 of the molar value.

What was measured:
human AKR1A1 = molecular target: T1, human AKR1A1 (Homo sapiens, UniProt P14550); assay: AKR1A1 SNO-CoA reductase activity assay (recombinant enzyme); format: biochemical; conditions: 200 nM recombinant AKR1A1, 100 μM NADPH, 100 μM SNO-CoA; FIG. 5; read-out: IC50 for inhibition of AKR1A1 SNO-CoA Reductase Activity
T1 construct: His; made in house; host or cells: Rosetta2(DE3)pLysS E. coli
T1 sequence (P14550 1-325): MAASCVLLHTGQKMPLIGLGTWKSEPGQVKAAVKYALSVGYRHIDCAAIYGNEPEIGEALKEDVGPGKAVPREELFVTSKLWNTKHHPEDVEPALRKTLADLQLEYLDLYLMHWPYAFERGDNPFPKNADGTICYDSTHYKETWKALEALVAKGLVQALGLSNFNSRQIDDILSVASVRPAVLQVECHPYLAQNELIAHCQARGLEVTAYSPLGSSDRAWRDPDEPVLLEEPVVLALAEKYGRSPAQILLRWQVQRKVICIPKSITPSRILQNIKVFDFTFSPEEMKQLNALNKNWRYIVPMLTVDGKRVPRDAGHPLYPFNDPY
Procedure: The human AKR1A1 coding sequence was cloned into a pET21b bacterial expression vector. pET21b-AKR1A1 was transformed into Rosetta2(DE3)pLysS E. coli and expression was induced by the addition of 100 μM isopropyl-β-D-1-thiogalactopyranoside at A600nm=0.4. Bacteria were grown for 4 hours at 25° C. and recombinant His-tagged SCoR was purified via Ni-affinity purification. Triplicate reactions were performed with 200 nM recombinant AKR1A1, 100 μM NADPH, 100 μM SNO-CoA, and increasing concentrations of imirestat dissolved in dimethyl sulfoxide (DMSO). SNO-CoA was prepared by reacting equal volumes of 0.1M CoA in 1M HCl and 0.1M NaNO2 water containing 100 μM EDTA and 100 μM DTPA. Initial rates were calculated using absorbance decrease at 340 nm. IC50 was calculated in GraphPad Prism 7 using non-linear regression analysis. For AKR1A1 liver activity following in-diet imirestat treatment, frozen liver tissue was dounce homogenized (30 dounces) in 50 mM phosphate buffer, pH 7.0 supplemented with 100 μM ethylenediaminetetraacetic acid (EDTA) and diethylenetriamine pentaacetate (DTPA) and 150 mM sodium chloride. […] Reactions were initiated by the addition of liver lysate and specific activity was calculated from the change in absorbance at 340 nm, protein concentration, and an extinction coefficient of 7.06 mM^−1·cm^−1 (combined for SNO-CoA and NADPH).

[1] = Total serum cholesterol in C57BL6J mice on in-diet imirestat; format: in vivo; conditions: C57BL6J 24 week old male mice, 4 weeks in-diet Imirestat (0.0125% w/w chow); FIG. 6
Procedure: (§1) AKR1A1^−/− mice were generated by Deltagen, Inc. C57BL6/J and ApoE^−/− mice were purchased from The Jackson Laboratory. CETP-ApoB100 transgenic mice were purchased from Taconic Biosciences. All mice were maintained under a 12-hour light/dark cycle. For imirestat treatment studies, mice were provided control chow or chow containing 0.0125% w/w imirestat (125 mg imirestat/1 kg chow) ad libitum. C57BL6/J and ApoE^−/− mice were provided control chow or imirestat chow for 4 weeks starting at age 20 weeks; CETP-ApoB100 transgenic mice were provided control chow or imirestat chow for 8 weeks starting at age 10 weeks.
(§2) Prior to euthanasia, mice were fasted for the indicated length of time. […] Collected blood was allowed to coagulate for 20 minutes at room temperature in a pediatric serum separator tube. Serum was separated by centrifugation at 2000 g for 20 minutes at 4° C. […]
(§3) Total serum cholesterol was determined by standard enzymatic assays. For lipoprotein cholesterol quantification, lipoprotein fractions were separated by gel filtration column chromatography. Approximately 70 fractions were collected and cholesterol in each fraction was quantified by standard enzymatic assays. Calibration of the column with purified lipoprotein fractions permitted quantification of cholesterol in various lipoprotein classes. Serum PCSK9 was quantified by solid phase sandwich ELISA.

PCSK9 [2] = assay: Serum PCSK9 levels in C57BL6J mice on in-diet imirestat (ELISA); format: in vivo; conditions: C57BL6J 24 week old male mice, 4 weeks in-diet Imirestat; FIG. 8
Procedure: as §1, §2, §3

[3] = Cholesterol fractionation in C57BL6J mice on in-diet imirestat; format: in vivo; conditions: C57BL6J 24 week old male mice, 4 weeks in-diet Imirestat; FIG. 7
Procedure: as §1, §2, §3

[4] = Total serum cholesterol in ApoE deficient mice on in-diet imirestat; format: in vivo; conditions: ApoE deficient 24 week old male mice, 4 weeks in-diet Imirestat; FIG. 10
Procedure: as §1, §2, §3

AKR1A1 = molecular target: T2, AKR1A1 (Mus musculus, UniProt Q9JII6); assay: SNO-CoA reductase activity in liver lysate of C57BL6J mice after in-diet imirestat; format: in vivo; conditions: C57BL6J 24 week old male mice, 4 weeks in-diet Imirestat; FIG. 9
T2 construct: For AKR1A1 liver activity following in-diet imirestat treatment, frozen liver tissue was dounce homogenized; from tissue; host or cells: liver of C57BL6/J mice (clarified lysate)
T2 sequence (Q9JII6 1-325): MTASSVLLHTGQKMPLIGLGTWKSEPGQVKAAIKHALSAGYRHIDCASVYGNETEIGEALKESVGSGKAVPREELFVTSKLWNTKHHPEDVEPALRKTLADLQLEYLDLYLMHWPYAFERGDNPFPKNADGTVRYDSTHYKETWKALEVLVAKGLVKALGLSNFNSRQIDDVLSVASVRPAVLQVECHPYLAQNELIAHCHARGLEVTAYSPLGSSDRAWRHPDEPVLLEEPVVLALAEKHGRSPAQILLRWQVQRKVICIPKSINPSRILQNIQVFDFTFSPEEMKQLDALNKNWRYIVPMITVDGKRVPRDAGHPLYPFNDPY
Procedure: as §1
Prior to euthanasia, mice were fasted for the indicated length of time. […]
The human AKR1A1 coding sequence was cloned into a pET21b bacterial expression vector. pET21b-AKR1A1 was transformed into Rosetta2(DE3)pLysS E. coli and expression was induced by the addition of 100 μM isopropyl-β-D-1-thiogalactopyranoside at A600nm=0.4. […] Initial rates were calculated using absorbance decrease at 340 nm. IC50 was calculated in GraphPad Prism 7 using non-linear regression analysis. […] Reactions were initiated by the addition of liver lysate and specific activity was calculated from the change in absorbance at 340 nm, protein concentration, and an extinction coefficient of 7.06 mM^−1·cm^−1 (combined for SNO-CoA and NADPH).

[5] = Cholesterol fractionation in ApoE deficient mice on in-diet imirestat; format: in vivo; conditions: ApoE deficient 24 week old male mice, 4 weeks in-diet Imirestat; FIG. 11
Procedure: as §1, §2, §3

PCSK9 [6] = assay: Serum PCSK9 levels in ApoE deficient mice on in-diet imirestat (ELISA); format: in vivo; conditions: ApoE deficient 24 week old male mice, 4 weeks in-diet Imirestat; FIG. 12
Procedure: as §1, §2, §3

[7] = Total serum cholesterol in CETP/ApoB100 transgenic mice on in-diet imirestat; format: in vivo; conditions: CETP/ApoB100 transgenic male mice, FIG. 13
Procedure: AKR1A1^−/− mice were generated by Deltagen, Inc. C57BL6/J and ApoE^−/− mice were purchased from The Jackson Laboratory. CETP-ApoB100 transgenic mice were purchased from Taconic Biosciences. All mice were maintained under a 12-hour light/dark cycle. For imirestat treatment studies, mice were provided control chow or chow containing 0.0125% w/w imirestat (125 mg imirestat/1 kg chow) ad libitum. […]
as §2, with “C. Serum was stored at −80° C. until analysis. For overnight fasted 12-week-old AKR1A1^−/− mice (FIG. 5), whole blood was provided to University Hospitals' Clinical Laboratory (Cleveland, Ohio) for cholesterol analysis.” for “C.”
as §3

In the case of O=C1NC(=O)C2(N1)c1cc(F)ccc1-c1ccc(F)cc12 [Imirestat, 2,7-Difluoro-2′H,5′H-spiro[fluorene-9,4′-imidazolidine]-2′,5′-dione], the pIC50 (human AKR1A1) was about 6.92, the “total serum cholesterol vs control” value [1] was “lower total serum cholesterol” and the “serum PCSK9 levels vs control” value (PCSK9 [2]) was “lower total serum PCSK9 levels”. The “cholesterol fractionation vs control” value [3] was “reduced total serum cholesterol”, the “total serum cholesterol vs control” value [4] was “lower total serum cholesterol” and the “SNO-CoA Reductase activity in liver (AKR1A1 liver activity) vs control” value (AKR1A1) was “lower AKR1A1 liver activity”. The “cholesterol fractionation vs control” value [5] was “reduced total serum cholesterol”, the “serum PCSK9 levels vs control” value (PCSK9 [6]) was “lower total serum PCSK9 levels” and the “total serum cholesterol vs control” value [7] was “lower total serum cholesterol”.
